# Test results as given in patent US10500207B2, “Compounds for the treatment of diseases associated with amyloid or amyloid-like proteins” (AC Immune SA, priority 2010, dated 2019).
# Molecular target: Aβ1-42 peptide (Homo sapiens, UniProt P05067)
# Experiment: Thioflavin T spectrofluorescence assay (ThT-assay): inhibition of Aβ1-42 aggregation (% inhibition at 330 μM; IC50 from dilution series)
# Conditions: 24 h, read-out: Inhibition at 330 μM [%], ThT assay; 330 μM small molecule, 33 μM Aβ1-42 (10:1), 24 hrs at 37° C.; mean ± standard deviation of two independent experiments
# Description: Aβ1-42 lyophilized powder (Bachem) was reconstituted in hexafluoroisopropanol (HFIP) to 1 mM. The peptide solution was sonicated for 15 min at room temperature, agitated overnight, and aliquots were made into non-siliconized microcentrifuge tubes. The HFIP was then evaporated under a stream of argon. The resulting peptide film was dried under vacuum for 10 min, tightly sealed and stored at −80° C. until used.
# A positive control without a small molecule was prepared to measure maximum RFU. A negative control without Aβ1-42 was prepared for each small molecule. […] The solutions were then incubated for 24 hrs at 37° C., and the spectrofluorescence (relative fluorescence units; RFU) were read in six replicates in black 384-well assay plates (Perkin-Elmer) on a Perkin-Elmer FluoroCount spectrofluorometer. The inhibition of aggregation is expressed as mean % inhibition±1 standard deviation (SD) according to the following equation:
# Racemic compounds and their enantiomers were tested for their ability to inhibit amyloid peptide aggregation using the ThT assay. To determine the IC50, the following dilutions of the compounds were used in the ThT assay described above:
# Sequence of Aβ1-42 peptide (P05067 672-713 limits assumed): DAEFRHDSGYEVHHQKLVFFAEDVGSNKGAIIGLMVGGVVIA
row,SMILES,inhibition at 330 µM [%]
1,Cn1c2c(c3ccc(Nc4ccc5c(c4)NC(=O)CO5)nc31)CCCC2 [Example 168],82.1 ± 7
2,c1cc2c(C3CCNCC3)c[nH]c2cc1Nc1ccc2c(C3CCNCC3)c[nH]c2n1 [Example 48],92 ± 0.8
3,CNC1CCc2c(c3cc(Nc4ccc(OC)c(OC)c4)cnc3n2C)C1 (stereo not shown) [Example 135],51.9 ± 5.5
4,Cn1c2c(c3ccc(N4CCOCC4)nc31)CCCC2 [Example 163],32.7 ± 0.9
5,COc1ccc(Nc2ccc3c(C4CCNCC4)cn(C)c3n2)cc1F [Example 103],93.2 ± 3.7
6,COc1ccc(Nc2ccc3[nH]c4c(c3c2)CC(N(C)C)CC4)cc1OC (stereo not shown) [Example 88],96.9 ± 2.6
7,CC(=O)N(C)C1CCc2c(c3ccc(Nc4ccc(N5CCOCC5)cc4)nc3n2C)C1 (stereo not shown) [Example 164],69.4 ± 2.7
8,COc1ccc(Nc2ccc3c(C4CCNCC4)c[nH]c3n2)cc1F [Example 102],84.1 ± 1.5
9,c1cc2c(cc1Nc1ccc3c(C4CCNCC4)c[nH]c3c1)OCO2 [Example 41],98 ± 0.5
10,CNC1CCc2[nH]c3nc(Nc4ccc(F)c(F)c4)ccc3c2C1 (stereo not shown) [Example 24],77.4 ± 15.6
11,COc1cc(Nc2ccc3c(C4CCN(C)CC4)c[nH]c3c2)ccc1F [Example 114],82.2 ± 1.6
12,COc1ccc(Nc2ccc3c(C4CCNCC4)cn(C)c3c2)cc1F [Example 98],95.3 ± 0.1
13,FC1(CNc2ccc3c(C4CCNCC4)c[nH]c3n2)CCNCC1 [Example 37],47.4 ± 5.2
14,CNC1CCc2c(c3ccc(Nc4ccc(N5CCN(C)CC5)cc4)nc3n2C)C1 (stereo not shown) [Example 83],82.7 ± 0.7
15,COc1ccc(Nc2ccc3c4c(n(C)c3n2)CCCC4)cc1OC [Example 81],90.5 ± 0.5
16,COc1ccc(Nc2ccc3c4c(n(C)c3c2)CCC(OC)C4)cc1OC (stereo not shown) [Example 123],93 ± 2.2
17,FC(F)(F)c1ccc(Nc2ccc3c(C4CCNCC4)c[nH]c3n2)cn1 [Example 61],83 ± 2.1
18,CN(c1ccc2c(c1)c(C1CCNCC1)cn2C)c1ccc2c(C3CCNCC3)cn(C)c2c1 [Example 54],96 ± 2.7

row,SMILES,inhibition at 330 µM [%]
1,c1cc2[nH]cc(C3CCNCC3)c2cc1Nc1ccc2c3c([nH]c2n1)CCC3 [Example 47],99.1 ± 0.5
2,Cn1cc(C2CCNCC2)c2ccc(Nc3ccc(N4CCOCC4)cc3)nc21 [Example 71],90.7 ± 3
3,CN1CCC(c2c[nH]c3cc(Nc4ccc5c(C6CCN(C)CC6)c[nH]c5n4)ccc23)CC1 [Example 148],88.7 ± 2.2
4,c1cc2cc(Nc3ccc4cc[nH]c4n3)cnc2[nH]1 [Example 11],86.2 ± 8.6
5,CN1CCc2ccc(Nc3ccc4c5c(n(C)c4n3)CCCC5)cc2C1 [Example 201],93.3 ± 0.1
6,COc1ccc(Nc2ccc3c4c(n(C)c3n2)CCC(OC(C)C)C4)cc1OC (stereo not shown) [Example 131],91.4 ± 0.2
7,CN1CCC(c2c[nH]c3cc(N4CCc5ccccc5C4)ccc23)CC1 [Example 23],97.8 ± 1.5
8,CNC1CCc2[nH]c3ccc(Nc4ccc(F)c(OC)c4)cc3c2C1 (stereo not shown) [Example 116],89 ± 3.6
9,Fc1cc(F)cc(Nc2ccc3cc[nH]c3n2)c1 [Example 6],60.1 ± 3.5
10,COc1cc(Nc2ccc3c(C4CCNCC4)cn(C)c3c2)ccc1F [Example 112],91.3 ± 1.3
11,Cn1c2c(c3cc(Nc4ccc(F)nc4)ccc31)CS(=O)(=O)CC2 [Example 183],42.3 ± 3.1
12,c1cc2c(C3CCNCC3)c[nH]c2cc1Nc1ccc2[nH]cc(C3CCNCC3)c2c1 [Example 36],98.2 ± 0.3
13,CNC1CCc2c(c3ccc(Nc4ccc5c(c4)OCCO5)nc3n2C)C1 (racemic) [Example 156],85.1 ± 0.8
14,FC(F)(F)c1ccc(Nc2ccc3[nH]cc(C4CCNCC4)c3c2)cn1 [Example 56],58.5 ± 2.7
15,c1cc2ccc(NC3CCNCC3)nc2[nH]1 [Example 43],48.4 ± 20.3
16,c1cc2c(cc1Nc1ccc3c(C4CCNCC4)c[nH]c3n1)CCC2 [Example 40],94.8 ± 1
17,c1cc2cc(Nc3ccc4cc[nH]c4n3)ccc2[nH]1 [Example 18],97 ± 1.2
18,Fc1ccc(Nc2ccc3cc[nH]c3n2)cc1F [Example 3],56.6 ± 23

# Same assay, conditions: IC50 μM 1st assay, ThT assay, dilution series 330 μM to 0.08 μM; 1st assay
row,SMILES,IC50 [µM]
1,"CNC1CCc2c(c3ccc(Nc4ccc(N5CCOCC5)cc4)nc3n2C)C1 (single isomer, unassigned) [Example 216a]",99.3
2,CNC1CCc2c(c3ccc(Nc4ccc5c(c4)OCCO5)nc3n2C)C1 (racemic) [Example 156],39.7

# Same assay, conditions: IC50 μM 2nd assay, ThT assay, dilution series 330 μM to 0.08 μM; 2nd assay
row,SMILES,IC50 [µM]
1,"CNC1CCc2c(c3ccc(Nc4ccc(N5CCOCC5)cc4)nc3n2C)C1 (single isomer, unassigned) [Example 216a]",54.9
2,CNC1CCc2c(c3ccc(Nc4ccc5c(c4)OCCO5)nc3n2C)C1 (racemic) [Example 156],26.7
